# US20230077155A1, “TETRAHYDROISOQUINOLINE COMPOUND AS POTASSIUM CHANNEL MODULATOR AND PREPARATION AND APPLICATION THEREOF” (Shanghai Zhimeng Biopharma, Inc., priority 2020, published 2023)
# System: not listed separately
# Test: Pharmacokinetics of mice, single intravenous and oral administration, plasma
# Type: in vivo
# Conditions: male ICR mice, gavage 10 mg/kg vs intravenous
# Description: Study on Pharmacokinetics of Mice
# 1) Research purposes: In order to obtain the pharmacokinetic characteristics and blood-brain barrier of the tested compound in male ICR mice
# Six healthy male ICR mice (body weight range 18-22 g) were taken and divided into 2 groups and 3 mice/group. After fasting overnight (only oral administration group), […], blood was collected by jugular vein puncture at time points 0.083 (IV only), 0.25, 0.5, 1, 2, 4, 6 (PO only), 8 and 24 hours, and at least 0.3 mL of whole blood was collected to EDTA-K2 anticoagulant tube. Plasma was centrifuged (6000 rpm, 8 minutes, 4° C.) within half an hour and frozen at −20° C. for later use.
# (§1) Experimental results: According to the blood drug concentration data obtained, the non-compartmental model of WinNonlin® 7.0 software (Pharsight, USA) was used to calculate the pharmacokinetic parameters after administration.
row,SMILES,F [%]
1,Cc1cc2c(c(C)c1NC(=O)CC(C)(C)C)CCN(c1ccc(F)cc1)C2 [Compound A],33.79
2,Cc1cc2c(c(C)c1NC(=O)CC(C)(C)C)CCN(c1ccc(F)cc1F)C2 [Compound B],88.56
3,Cc1cc2c(c(C)c1NC(=O)CC1(C)CC1)CCN(c1ccc(F)cc1)C2 [Compound I],24.6
4,Cc1cc2c(c(C)c1NC(=O)CC1(C)CC1)CCN(c1ccc(F)cc1F)C2 [Compound J],19.18
5,Cc1cc2c(c(C)c1NC(=O)CC1(C)CC1)CCN(c1ccc(C(F)(F)F)cc1)C2 [Compound P],83.77

# Same assay, conditions: mouse, po; male ICR mice, gavage 10 mg/kg, plasma
SMILES,AUC(0-inf) [ng·h/mL],AUC(0-t) [ng·h/mL],Cmax [ng/mL],Tmax [min],half-life [min]
Cc1cc2c(c(C)c1NC(=O)CC(C)(C)C)CCN(c1ccc(F)cc1)C2 [Compound A],793,792,142,40.2,157
Cc1cc2c(c(C)c1NC(=O)CC(C)(C)C)CCN(c1ccc(F)cc1F)C2 [Compound B],1430,1400,776,15,158
Cc1cc2c(c(C)c1NC(=O)CC1(C)CC1)CCN(c1ccc(F)cc1)C2 [Compound I],539,528,192,19.8,232
Cc1cc2c(c(C)c1NC(=O)CC1(C)CC1)CCN(c1ccc(F)cc1F)C2 [Compound J],703,693,374,15,109
Cc1cc2c(c(C)c1NC(=O)CC1(C)CC1)CCN(c1ccc(C(F)(F)F)cc1)C2 [Compound P],30900,5990,315,520,5060

# Same assay, conditions: mouse; male ICR mice, intravenous 0.5 mg/kg, plasma
SMILES,AUC(0-inf) [ng·h/mL],AUC(0-t) [ng·h/mL],Cmax [ng/mL],Tmax [min],half-life [min]
Cc1cc2c(c(C)c1NC(=O)CC(C)(C)C)CCN(c1ccc(F)cc1)C2 [Compound A],118,117,270,4.8,59.4
Cc1cc2c(c(C)c1NC(=O)CC1(C)CC1)CCN(c1ccc(F)cc1)C2 [Compound I],108,107,299,4.8,51.6
Cc1cc2c(c(C)c1NC(=O)CC1(C)CC1)CCN(c1ccc(C(F)(F)F)cc1)C2 [Compound P],383,357,382,4.8,160

# Same assay, conditions: mouse; male ICR mice, intravenous 1 mg/kg (footnote *), plasma
SMILES,AUC(0-inf) [ng·h/mL],AUC(0-t) [ng·h/mL],Cmax [ng/mL],Tmax [min],half-life [min]
Cc1cc2c(c(C)c1NC(=O)CC(C)(C)C)CCN(c1ccc(F)cc1F)C2 [Compound B],161,158,405,4.8,56.4
Cc1cc2c(c(C)c1NC(=O)CC1(C)CC1)CCN(c1ccc(F)cc1F)C2 [Compound J],366,361,942,4.8,52.8

# Target: T1, KCNQ2 potassium channel (CHO-KCNQ2 cells) (Homo sapiens, UniProt O43526)
# T1 construct: expressed in transfected cells; host or cells: CHO cells stably expressing KCNQ2, kept under G418 selection
# Test: Potassium ion channel opener activity test (FDSS/μCELL detection, FluxOR thallium flux)
# Type: cell-based
# Conditions: not given
# Description: Potassium Ion Channel Opener Activity Test (FDSS/μCELL Detection)
# 1.1 Experimental procedure
# Cell preparation: CHO-KCNQ2 cells were cultured in a 175 cm^2 culture flask, and when the cell density grew to 60-80%, the culture medium was removed, washed with 7 mL PBS (Phosphate Buffered Saline) once, then 3 mL 0.25% Trypsin was added to digest. After the digestion was completed, 7 mL culture medium (90% DMEM/F12+10% FBS±500 μg/mL G418) was added to neutralize, centrifugated for 3 minutes at 800 rpm. The supernatant was aspirated, then 5 mL culture medium was added to resuspend, and then the cells were counted.
# Cell plating: according to the results of cell counting, the density was adjusted to 3×10^4 cells/well. After standing at room temperature for 30 minutes, the plate was placed in a 37° C. CO2 incubator and incubated overnight for 16-18 hours. The cell density reached about 80%.
# Fluorescent dye incubation: the cell culture medium was discarded, 80 μL/well loading buffer was added, and incubated in the dark at room temperature for 60 minutes. Compound incubation: the loading buffer was discarded, 80 μL/well prepared compound solution was added, and incubated in the dark at room temperature for 20 minutes.
# Fluorescence data collection: FDSS/μCELL instrument was used for real-time fluorescence signal recording with excitation wavelength at 480 nm and emission wavelength at 540 nm, recorded 1 time per second, and 20 μL/well stimulation buffer was started to add after recording for 10 seconds for baseline, and then continued to record until the end of 180 seconds.
# The above buffer come from a commercially available kit named FluxOR potassium ion channel assay.
# 20 mM DMSO compound mother liquor was prepared, 10 μL of 20 mM compound mother liquor was took into 20 μL DMSO solution, serially diluted 3 times to 8 intermediate concentrations; then the intermediate concentrations of the compound was took out and added to the test buffer, diluted for 200 times to get the final concentration to be tested, 80 μL was took out and added to the test plate.
# The highest test concentration was 100 μM, followed by […], 33.33, 11.11, 3.70, 1.23, 0.41, 0.137, 0.045 μM, total 8 concentrations. Each concentration set 3 duplicate wells.
# This concentration of DMSO has no effect on the KCNQ2 potassium channel.
# Experimental data was analyzed by Excel 2007 and GraphPad Prism 5.0 software, and the ratio of 180 seconds was calculated to calculate the agonism effect. The agonism effect of the compound was calculated by the following formula: […]
# Reagent: FluxORTM Detection Kit (Invitrogen, Cat #F0017)
# The experimental data in the report must meet the following criteria: Z′ Factor>0.5
# 2. Results: See Table 1, wherein the smaller the EC50 is, the higher the activity of the corresponding compound is.
# T1 sequence (O43526 whole entry): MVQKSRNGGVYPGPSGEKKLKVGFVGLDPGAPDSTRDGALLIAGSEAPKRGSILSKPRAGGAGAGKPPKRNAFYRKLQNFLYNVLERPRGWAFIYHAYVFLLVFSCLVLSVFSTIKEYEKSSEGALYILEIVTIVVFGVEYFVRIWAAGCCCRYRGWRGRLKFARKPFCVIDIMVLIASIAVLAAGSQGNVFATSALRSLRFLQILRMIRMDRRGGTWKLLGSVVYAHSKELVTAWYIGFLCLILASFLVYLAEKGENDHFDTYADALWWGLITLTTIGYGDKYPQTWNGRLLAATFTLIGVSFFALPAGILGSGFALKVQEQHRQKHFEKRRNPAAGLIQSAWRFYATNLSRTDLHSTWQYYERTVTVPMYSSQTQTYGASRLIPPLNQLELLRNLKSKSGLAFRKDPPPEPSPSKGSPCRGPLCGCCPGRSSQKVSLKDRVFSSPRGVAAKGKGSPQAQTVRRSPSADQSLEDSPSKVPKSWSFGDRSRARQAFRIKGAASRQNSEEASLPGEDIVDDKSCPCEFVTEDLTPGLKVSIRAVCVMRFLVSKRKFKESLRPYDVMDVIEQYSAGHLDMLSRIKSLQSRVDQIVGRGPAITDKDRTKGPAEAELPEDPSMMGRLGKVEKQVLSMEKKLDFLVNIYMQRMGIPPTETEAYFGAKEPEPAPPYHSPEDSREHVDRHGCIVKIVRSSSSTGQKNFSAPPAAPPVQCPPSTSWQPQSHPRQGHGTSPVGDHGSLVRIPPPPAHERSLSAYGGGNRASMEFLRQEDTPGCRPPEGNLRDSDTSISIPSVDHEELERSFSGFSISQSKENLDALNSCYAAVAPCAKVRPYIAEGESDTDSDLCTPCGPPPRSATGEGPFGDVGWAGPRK
row,SMILES,EC50 [nM]
1,Cc1cc2c(c(C)c1NC(=O)CC(C)(C)C)CCN(c1ccc(F)cc1)C2 [Compound A],440
2,Cc1cc2c(c(C)c1NC(=O)CC(C)(C)C)CCN(c1ccc(F)cc1F)C2 [Compound B],160
3,Cc1cc2c(c(C)c1NC(=O)CC1(C)CC1)CCN(c1ccc(F)cc1)C2 [Compound I],440
4,Cc1cc2c(c(C)c1NC(=O)CC1(C)CC1)CCN(c1ccc(C(F)(F)F)cc1)C2 [Compound P],34

# Same assay, conditions: highest test concentration 100 μM
row,SMILES,Maximum agonist rate (%)
1,Cc1cc2c(c(C)c1NC(=O)CC(C)(C)C)CCN(c1ccc(F)cc1)C2 [Compound A],37.97
2,Cc1cc2c(c(C)c1NC(=O)CC(C)(C)C)CCN(c1ccc(F)cc1F)C2 [Compound B],37.5
3,Cc1cc2c(c(C)c1NC(=O)CC1(C)CC1)CCN(c1ccc(F)cc1)C2 [Compound I],38.3
4,Cc1cc2c(c(C)c1NC(=O)CC1(C)CC1)CCN(c1ccc(C(F)(F)F)cc1)C2 [Compound P],38.22

# System: not listed separately
# Test: Brain-blood ratio study in mice after single oral administration
# Type: in vivo
# Conditions: mouse, brain and plasma; male ICR mice, single oral 10 mg/kg, time point 2 h; read-out: Cerebral blood ratio
# Description: Brain-blood ratio study: 6 healthy male ICR mice (body weight range 18-22 g) were taken and divided into 2 groups and 3 mice/group. After fasting overnight, the compound to be tested (10 mg/kg) was administrated orally respectively. Blood was taken through cardiac puncture at time points 2 and 4 hours, at least 0.5 mL of whole blood was collected to EDTA-K2 anticoagulant tube. Plasma was centrifuged (6000 rpm, 8 minutes, 4° C.) within half an hour and frozen at −20° C. for later use. At the same time, the brain tissue was collected, rinsed with normal saline, then sucked to dryness with absorbent paper, weighed, and frozen at −20° C. for later use.
# The cerebral blood ratio is very important to nerve drugs, and it can be seen from Table 3 that the compounds of the present invention have excellent cerebral blood ratio, which will bring better drug efficacy and excellent safety. By comparing the cerebral blood ratios of compound A, compound 1, compound B and compound J, it can be seen that after the tert-butyl of compound A or compound B has been changed into […]
row,SMILES,Kp at 2 h
1,Cc1cc2c(c(C)c1NC(=O)CC(C)(C)C)CCN(c1ccc(F)cc1)C2 [Compound A],2.3
2,Cc1cc2c(c(C)c1NC(=O)CC(C)(C)C)CCN(c1ccc(F)cc1F)C2 [Compound B],0.99
3,Cc1cc2c(c(C)c1NC(=O)CC1(C)CC1)CCN(c1ccc(F)cc1)C2 [Compound I],6
4,Cc1cc2c(c(C)c1NC(=O)CC1(C)CC1)CCN(c1ccc(F)cc1F)C2 [Compound J],4.1
5,Cc1cc2c(c(C)c1NC(=O)CC1(C)CC1)CCN(c1ccc(C(F)(F)F)cc1)C2 [Compound P],6.4

# Same assay, conditions: mouse, brain and plasma; male ICR mice, single oral 10 mg/kg, time point 4 h; read-out: Cerebral blood ratio
row,SMILES,Kp at 4 h
1,Cc1cc2c(c(C)c1NC(=O)CC(C)(C)C)CCN(c1ccc(F)cc1)C2 [Compound A],2.8
2,Cc1cc2c(c(C)c1NC(=O)CC(C)(C)C)CCN(c1ccc(F)cc1F)C2 [Compound B],0.72
3,Cc1cc2c(c(C)c1NC(=O)CC1(C)CC1)CCN(c1ccc(F)cc1)C2 [Compound I],5.8
4,Cc1cc2c(c(C)c1NC(=O)CC1(C)CC1)CCN(c1ccc(F)cc1F)C2 [Compound J],3.2
5,Cc1cc2c(c(C)c1NC(=O)CC1(C)CC1)CCN(c1ccc(C(F)(F)F)cc1)C2 [Compound P],5.96

# System: not listed separately
# Test: Pharmacokinetics of rats, single intravenous and oral administration, plasma
# Type: in vivo
# Conditions: male SD rats, gavage 5 mg/kg vs intravenous 0.3 mg/kg
# Description: Study on Pharmacokinetics of Rats
# 1) Research purpose: To obtain the pharmacokinetic characteristics of the compounds to be tested in male SD rats.
# Pharmacokinetic study: 6 healthy male SD rats (SPF grade) were divided into 2 groups and 3 rats/group. After fasting overnight (only oral administration group), compound A was administrated 0.3 mg/kg intravenously and 5 mg/kg orally, blood was collected by jugular vein puncture at time points 0.083 (IV only), 0.25, 0.5, 1, 2, 4, 6 (PO only), 8 and 24 hours, and at least 0.3 mL of whole blood was collected to EDTA-K2 anticoagulant tube. Plasma was centrifuged (6000 rmp, 8 minutes, 4° C.) within half an hour and frozen at −20° C. for later use.
# as §1
row,SMILES,F [%]
1,Cc1cc2c(c(C)c1NC(=O)CC(C)(C)C)CCN(c1ccc(F)cc1)C2 [Compound A],38.93
2,Cc1cc2c(c(C)c1NC(=O)CC(C)(C)C)CCN(c1ccc(F)cc1F)C2 [Compound B],43.63
3,Cc1cc2c(c(C)c1NC(=O)CC1(C)CC1)CCN(c1ccc(F)cc1)C2 [Compound I],30.11

# Same assay, conditions: rat, po; male SD rats, gavage 5 mg/kg, plasma
SMILES,AUC(0-inf) [ng·h/mL],AUC(0-t) [ng·h/mL],Cmax [ng/mL],Tmax [min],half-life [min]
Cc1cc2c(c(C)c1NC(=O)CC(C)(C)C)CCN(c1ccc(F)cc1)C2 [Compound A],1280,909,154,90,184
Cc1cc2c(c(C)c1NC(=O)CC(C)(C)C)CCN(c1ccc(F)cc1F)C2 [Compound B],1080,1070,128,240,208
Cc1cc2c(c(C)c1NC(=O)CC1(C)CC1)CCN(c1ccc(F)cc1)C2 [Compound I],855,822,221,30,375

# Same assay, conditions: rat; male SD rats, intravenous 0.3 mg/kg, plasma
SMILES,AUC(0-inf) [ng·h/mL],AUC(0-t) [ng·h/mL],Cmax [ng/mL],Tmax [min],half-life [min]
Cc1cc2c(c(C)c1NC(=O)CC(C)(C)C)CCN(c1ccc(F)cc1)C2 [Compound A],144,140,332,4.8,59.4
Cc1cc2c(c(C)c1NC(=O)CC(C)(C)C)CCN(c1ccc(F)cc1F)C2 [Compound B],149,147,352,4.8,120
Cc1cc2c(c(C)c1NC(=O)CC1(C)CC1)CCN(c1ccc(F)cc1)C2 [Compound I],166,164,345,4.8,104
